Measured values: US12157746B2, “Tetrahydro-1H-pyrazino[2,1-a]isoindolylquinoline compounds for the treatment of autoimmune disease” (F. HOFFMANN-LA ROCHE AG, priority 2018, dated 2024)
pIC50: −log10 of the molar value.

Biological target: T1, human TLR9 (Homo sapiens, UniProt Q9NR96)
T1 sequence (Q9NR96 26-1032): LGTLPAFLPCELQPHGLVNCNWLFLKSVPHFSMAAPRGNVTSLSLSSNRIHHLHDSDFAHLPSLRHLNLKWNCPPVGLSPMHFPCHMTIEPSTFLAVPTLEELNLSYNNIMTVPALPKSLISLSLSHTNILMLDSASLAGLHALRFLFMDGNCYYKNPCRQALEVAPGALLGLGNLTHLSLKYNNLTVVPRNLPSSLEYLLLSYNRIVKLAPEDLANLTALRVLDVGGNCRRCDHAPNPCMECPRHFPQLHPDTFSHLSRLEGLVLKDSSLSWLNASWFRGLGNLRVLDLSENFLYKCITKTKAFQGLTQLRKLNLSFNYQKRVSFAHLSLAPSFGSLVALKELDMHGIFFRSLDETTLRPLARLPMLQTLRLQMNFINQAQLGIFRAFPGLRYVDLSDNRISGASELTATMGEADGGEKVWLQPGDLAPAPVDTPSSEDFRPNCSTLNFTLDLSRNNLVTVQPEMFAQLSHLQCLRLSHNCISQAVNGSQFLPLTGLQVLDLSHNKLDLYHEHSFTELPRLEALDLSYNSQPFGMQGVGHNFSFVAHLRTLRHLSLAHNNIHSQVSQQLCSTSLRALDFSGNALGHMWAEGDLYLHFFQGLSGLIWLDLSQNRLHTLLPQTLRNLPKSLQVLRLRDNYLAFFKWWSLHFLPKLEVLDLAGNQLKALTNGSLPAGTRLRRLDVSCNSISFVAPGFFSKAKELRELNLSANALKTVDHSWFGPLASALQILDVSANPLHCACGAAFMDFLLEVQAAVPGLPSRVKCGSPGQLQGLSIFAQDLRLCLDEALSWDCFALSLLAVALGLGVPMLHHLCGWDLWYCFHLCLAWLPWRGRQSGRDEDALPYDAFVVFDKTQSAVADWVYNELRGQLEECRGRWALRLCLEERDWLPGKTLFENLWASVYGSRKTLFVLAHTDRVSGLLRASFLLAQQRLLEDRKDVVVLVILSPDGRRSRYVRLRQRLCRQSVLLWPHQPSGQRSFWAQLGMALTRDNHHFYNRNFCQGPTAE
Assay: HEK293-Blue-hTLR-9 cells assay
Type: cell-based
Settings: HEK293-Blue-hTLR9 cells, ODN2006 stimulation, 20 hrs, SEAP reporter; read-out: HEK/hTLR9 IC50
Outline: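 Antagonist mode in HEK293-Blue hTLR9 reporter cells (SEAP under NF-κB/AP-1 sites), stimulated with ODN2006 added from a 20 uM solution. Serially diluted compound (1% DMSO final) was incubated 20 hrs at 37° C. Supernatant SEAP was developed with QUANTI-Blue for 2 h at 37° C and read at 620˜655 nm.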

SMILES | pIC50
C[C@@H]1CN(c2ccc(C#N)n3nccc23)C[C@@H]2c3ccc(N4C[C@H](N)[C@@H](O)C4)cc3CN12 [Example 111, 4-[(4R,10bS)-8-[(3S,4S)-3-amino-4-hydroxy-pyrrolidin-1-yl]-4-methyl-3,4,6,10b-tetrahydro-1H-pyrazino[2,1-a]isoindol-2-yl]pyrazolo[1,5-a]pyridine-7-carbonitrile] | 7.42
C[C@@H]1CN(c2ccc(C#N)c3ncccc23)C[C@@H]2c3ccc(NC4CNCCOC4)cc3CN12 (stereo partly drawn) [Example 56, 5-[(4R,10bS)-4-methyl-8-(1,4-oxazepan-6-ylamino)-3,4,6,10b-tetrahydro-1H-pyrazino[2,1-a]isoindol-2-yl]quinoline-8-carbonitrile] | 6.99
CO[C@H]1CCN(c2ccc3c(c2)CN2[C@H](C)CN(c4ccc(C#N)n5nccc45)C[C@H]32)C[C@H]1N [Example 106, 4-[(4R,10bS)-8-[(3R,4S)-3-amino-4-methoxy-1-piperidyl]-4-methyl-3,4,6,10b-tetrahydro-1H-pyrazino[2,1-a]isoindol-2-yl]pyrazolo[1,5-a]pyridine-7-carbonitrile] | 6.87
COC1CN(c2ccc3c(c2)CN2C3CN(c3ccc(C#N)c4ncccc34)C[C@H]2C)CC1N (single isomer, unassigned) [Example 16B] | 7.01

The next lines start with the values.

pIC50 | SMILES
6.94 | C[C@@H]1CN(c2ccc(C#N)c3ncccc23)C[C@@H]2c3ccc(N4CC(N)C5(COC5)C4)cc3CN12 (stereo partly drawn) [Example 18, 5-[(4R,10bS)-8-(5-amino-2-oxa-7-azaspiro[3.4]octan-7-yl)-4-methyl-3,4,6,10b-tetrahydro-1H-pyrazino[2,1-a]isoindol-2-yl]quinoline-8-carbonitrile]
7.04 | C[C@@H]1CN(c2ccc(C#N)c3ncccc23)C[C@@H]2c3ccc(N4CCOC[C@H](N)C4)cc3CN12 [Example 54A, 5-[(4R,10bS)-8-[(6R)-6-amino-1,4-oxazepan-4-yl]-4-methyl-3,4,6,10b-tetrahydro-1H-pyrazino[2,1-a]isoindol-2-yl]quinoline-8-carbonitrile]
7.13 | C[C@@H]1CN(c2ccc(C#N)c3ncccc23)C[C@@H]2c3ccc(N4C[C@H](N)[C@@](C)(O)C4)cc3CN12 [Example 45B, 5-[(4R,10bS)-8-[(3S,4S)-4-amino-3-hydroxy-3-methyl-pyrrolidin-1-yl]-4-methyl-3,4,6,10b-tetrahydro-1H-pyrazino[2,1-a]isoindol-2-yl]quinoline-8-carbonitrile]
